From patent US10059687B2, “Histone demethylase inhibitors” (CELGENE QUANTICEL RESEARCH, INC., priority 2015, dated 2018) come the findings set out here.

Assay [1] has as its system esophageal squamous cell carcinoma KYSE-150 cells. Description: Cellular IC50 in KYSE-150 cells. The format is cell-based. The following applies: Homo sapiens, one class given per A and B pair. From the text:
Table 7 provides IC50 values of various compounds disclosed herein, tested in cellular human esophageal squamous cell carcinoma KYSE-150 cells: […]

The next assay deals with JMJD3 (Homo sapiens, UniProt O15054). Description: In vitro enzyme inhibition assay for JMJD3 activity (TR-FRET). The class given is biochemical. As to the method:
This assay determines the ability of a test compound to inhibit JMJD3 demethylase activity. Baculovirus expressed JMJD3 (GenBank Accession #NM-001080424, AA1043-end) was purchased from BPS Bioscience (Cat#50115).
The enzymatic assay of JMJD3 activity is based upon Time Resolved-Fluorescence Resonance Energy Transfer (TR-FRET) detection. The ability of test compounds to inhibit the activity of JMJD3 was determined in 384-well plate format under the following reaction conditions: 5 nM JMJD3, 250 nM H3K27me3-biotin labeled peptide (Anaspec cat #64367), 0.4 to 2 μM α-ketoglutaric acid in assay buffer of 50 mM HEPES, pH7.3, 0.005% Brij35, 0.5 mM TCEP, 0.2 mg/ml BSA, 50 μM sodium L-ascorbate, and 5 μM ammonium iron(II) sulfate. Reaction product was determined quantitatively by TR-FRET after the addition of detection reagent Phycolink Streptavidin-allophycocyanin (Prozyme) and Europium-anti-H3K27me2 antibody (PerkinElmer) in the presence of 5 mM EDTA in LANCE detection buffer (PerkinElmer) at a final concentration of 50 nM and 1 nM, respectively.
The assay reaction was initiated by the following: […] of the mixture of 750 nM H3K27me3-biotin labeled peptide and 1.2 to 6 μM alpha-ketoglutaric acid with 2 μL of 11-point serial diluted inhibitor in 3% DMSO were added to each well of plate, followed by the addition of 2 μl of 15 nM JMJD3 to initiate the reaction. The reaction mixture was incubated at RT for 30 min, and terminated by the addition of 6 μL of 5 mM EDTA in LANCE detection buffer containing 100 nM Phycolink Streptavidin-allophycocyanin and 2 nM Europium-anti-H3K27me2 antibody. Plates were read by EnVisionMultilabel Reader in TR-FRET mode (excitation at 320 nm, emission at 615 nm and 665 nm) after 1 hr incubation at RT. A ratio from the readout of 665/615 was calculated for each well and fitted to determine inhibition constant (IC50).

The next assay deals with JMJD2C (Homo sapiens (Human), UniProt Q9H3R0). Description: In vitro enzyme inhibition assay for JMJD2C activity (TR-FRET). The class given is biochemical. As to the method:
This assay determines the ability of a test compound to inhibit JMJD2C demethylase activity. Baculovirus expressed JMJD2C (GenBank Accession #BC143571, AA 2-372) was purchased from BPS Bioscience (Cat#50105).
The ability of test compounds to inhibit the activity of JMJD2C was determined in 384-well plate format under the following reaction conditions: 0.3 nM JMJD2C, 300 nM H3K9me3-biotin labeled peptide (Anaspec cat #64360), 2 μM alpha-ketoglutaric acid in assay buffer of 50 mM HEPES, pH7.3, 0.005% Brij35, 0.5 mM TCEP, 0.2 mg/ml BSA, 50 μM sodium L-ascorbate, and 2 μM ammonium iron(II) sulfate. Reaction product was determined quantitatively by TR-FRET after the addition of detection reagent Phycolink Streptavidin-allophycocyanin (Prozyme) and Europium-anti-di-methylated histone H3 lysine 9 (H3K9me2) antibody (PerkinElmer) in the presence of 5 mM EDTA in LANCE detection buffer (PerkinElmer) at a final concentration of 50 nM and 1 nM, respectively.
(§1) The assay reaction was initiated by the following: 2 μl of the mixture of 900 nM H3K9me3-biotin labeled peptide and 6 μM alpha-ketoglutaric acid with 2 μl of 11-point serial diluted inhibitor in 3% DMSO were added to each well of the plate, followed by the addition of 2 μl of 0.9 nM JMJD2C to initiate the reaction. The reaction mixture was incubated at RT for 30 min, and terminated by the addition of 6 μl of 5 mM EDTA in LANCE detection buffer containing 100 nM Phycolink Streptavidin-allophycocyanin and 2 nM Europium-anti-H3K9me2 antibody. Plates were read by EnVisionMultilabel Reader in TR-FRET mode (excitation at 320 nm, emission at 615 nm and 665 nm) after 1 hr incubation at RT. A ratio was calculated (665/615) for each well and fitted to determine inhibition constant (IC50).
On the technique in general: In TR-FRET formats the signal depends on donor and acceptor labels being close together.

The target of a further assay is Jarid1B (Homo sapiens (Human), UniProt Q9UGL1). Description: In vitro enzyme inhibition assay for Jarid1B activity (TR-FRET). The class given is biochemical. The method, then: The ability of test compounds to inhibit the activity of Jarid1B was determined in 384-well plate format under the following reaction conditions: 0.8 nM Jarid1B, 300 nM H3K4me3-biotin labeled peptide (Anaspec cat #64357), 2 μM alpha-ketoglutaric acid in assay buffer of 50 mM HEPES, pH7.3, 0.005% Brij35, 0.5 mM TCEP, 0.2 mg/ml BSA, 50 μM sodium L-ascorbate, and 2 μM ammonium iron(II) sulfate. Reaction product was determined quantitatively by TR-FRET after the addition of detection reagent Phycolink Streptavidin-allophycocyanin (Prozyme) and Europium-anti-H3K4me or -H3K4me2 antibody (PerkinElmer) in the presence of 5 mM EDTA in LANCE detection buffer (PerkinElmer) at a final concentration of 25 nM and 1 nM, respectively.
Chain of Jarid1B (Q9UGL1 whole entry, species assumed): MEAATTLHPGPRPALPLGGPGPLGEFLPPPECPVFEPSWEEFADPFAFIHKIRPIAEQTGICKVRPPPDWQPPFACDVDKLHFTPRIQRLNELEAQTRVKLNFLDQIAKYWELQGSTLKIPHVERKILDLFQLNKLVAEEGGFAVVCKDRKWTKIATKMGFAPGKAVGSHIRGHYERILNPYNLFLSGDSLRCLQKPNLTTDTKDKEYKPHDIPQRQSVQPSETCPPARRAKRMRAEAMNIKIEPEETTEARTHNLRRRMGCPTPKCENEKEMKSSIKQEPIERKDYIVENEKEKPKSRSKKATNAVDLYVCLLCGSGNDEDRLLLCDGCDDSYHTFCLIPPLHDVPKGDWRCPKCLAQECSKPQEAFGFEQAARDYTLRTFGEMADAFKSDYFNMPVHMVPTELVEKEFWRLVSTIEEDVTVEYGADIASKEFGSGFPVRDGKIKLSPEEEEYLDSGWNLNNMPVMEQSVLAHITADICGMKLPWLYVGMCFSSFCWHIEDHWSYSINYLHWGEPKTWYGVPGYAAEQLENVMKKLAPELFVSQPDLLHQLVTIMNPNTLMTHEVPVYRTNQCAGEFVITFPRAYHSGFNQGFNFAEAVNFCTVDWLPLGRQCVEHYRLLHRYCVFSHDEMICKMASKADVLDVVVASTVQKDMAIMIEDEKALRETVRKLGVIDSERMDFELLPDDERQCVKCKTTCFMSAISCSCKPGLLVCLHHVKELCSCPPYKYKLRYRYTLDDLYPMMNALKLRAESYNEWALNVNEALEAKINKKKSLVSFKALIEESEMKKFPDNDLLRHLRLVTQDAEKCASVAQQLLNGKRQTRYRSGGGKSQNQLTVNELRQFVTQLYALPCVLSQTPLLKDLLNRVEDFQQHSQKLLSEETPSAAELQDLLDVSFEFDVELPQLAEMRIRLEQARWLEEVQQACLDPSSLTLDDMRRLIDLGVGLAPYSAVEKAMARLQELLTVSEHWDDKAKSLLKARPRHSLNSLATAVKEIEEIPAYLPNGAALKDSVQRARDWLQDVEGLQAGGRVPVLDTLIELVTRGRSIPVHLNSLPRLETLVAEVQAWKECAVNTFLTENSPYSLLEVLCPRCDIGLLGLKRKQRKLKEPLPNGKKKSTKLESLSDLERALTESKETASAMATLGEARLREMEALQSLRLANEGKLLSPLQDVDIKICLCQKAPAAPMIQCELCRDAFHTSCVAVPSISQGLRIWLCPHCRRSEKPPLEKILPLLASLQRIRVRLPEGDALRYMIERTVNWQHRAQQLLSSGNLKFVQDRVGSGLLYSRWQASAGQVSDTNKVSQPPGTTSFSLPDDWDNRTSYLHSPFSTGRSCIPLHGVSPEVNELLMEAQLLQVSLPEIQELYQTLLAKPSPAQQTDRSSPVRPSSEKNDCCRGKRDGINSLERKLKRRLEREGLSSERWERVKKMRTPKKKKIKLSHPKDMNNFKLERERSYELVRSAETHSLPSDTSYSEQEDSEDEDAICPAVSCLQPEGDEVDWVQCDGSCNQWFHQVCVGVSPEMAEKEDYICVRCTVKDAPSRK
as §1, with “nM H3K4me3-biotin” for “nM H3K9me3-biotin”, “DMSO was” for “DMSO were”, “of 2.4” for “of 0.9”, “nM Jarid1B” for “nM JMJD2C”, “containing 50” for “containing 100”, “nM Europium-anti-H3K4me/H3K4me2” for “nM Europium-anti-H3K9me2”

Where [2] appears, read: Table 5, one class given per A and B pair.
Setting [3] is: Table 4, cell gives A/B enantiomer values.

Chain of JMJD2C (Q9H3R0 2-372): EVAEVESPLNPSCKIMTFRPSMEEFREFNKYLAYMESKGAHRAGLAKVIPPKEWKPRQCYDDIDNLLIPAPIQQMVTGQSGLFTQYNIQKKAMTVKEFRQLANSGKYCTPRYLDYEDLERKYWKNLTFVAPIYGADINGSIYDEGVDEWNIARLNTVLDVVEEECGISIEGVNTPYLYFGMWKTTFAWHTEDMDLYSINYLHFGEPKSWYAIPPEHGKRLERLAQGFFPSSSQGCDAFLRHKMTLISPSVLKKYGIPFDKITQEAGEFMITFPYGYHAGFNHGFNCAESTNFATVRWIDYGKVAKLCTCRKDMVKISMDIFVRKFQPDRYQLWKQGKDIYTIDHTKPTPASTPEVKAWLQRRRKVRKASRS

As to `CCc1ccccc1-c1ccc2c(c1)CN(C)[C@H]2CNc1cnccc1C(=O)O` [Example 22A, (R)-3-(((5-(2-ethylphenyl)-2-methyl-isoindolin-1-yl)methyl)amino) isonicotinic acid], the concentration for half-maximal inhibition (IC50) in assay [1] is no more than 100 nM; at JMJD3 (setting [2]), 1000 to 10000 nM; against JMJD2C (setting [2]), 100 to 1000 nM; against Jarid1B (setting [2]), no more than 100 nM.
Regarding `Cc1ccc(N(C)c2ccc3c(c2)CCN(C)[C@@H]3CNc2cnccc2C(=O)O)cc1` [Example 11B, (S)-3-(((2-methyl-6-(methyl(p-tolyl)amino)-1,2,3,4-tetrahydroisoquinolin-1-yl)methyl)amino)isonicotinic acid], the half-maximal inhibitory concentration (IC50) in assay [1] was no more than 100 nM; at JMJD3 (setting [2]) it was 1000 to 10000 nM; against JMJD2C (setting [2]) it was 100 to 1000 nM; against Jarid1B (setting [2]) it was no more than 100 nM.
For `Cc1ccccc1-c1ccc2c(c1)CCN(C)[C@@H]2CNc1cnccc1C(=O)O` [Example 12B, (S)-3-(((2-methyl-6-(o-tolyl)-1,2,3,4-tetrahydroisoquinolin-1-yl)methyl)amino)isonicotinic acid], the IC50 was no more than 100 nM in assay [1], 1000 to 10000 nM at JMJD3 (setting [2]), 1000 to 10000 nM at JMJD2C (setting [2]) and no more than 100 nM against Jarid1B (setting [2]).
For the compound `CC(C)c1ccc(N(C)c2ccc3c(c2)CN[C@@H]3CNc2cnccc2C(=O)O)cc1` [Example 6A, 3-{[((1S)-5-{methyl[4-isopropylphenyl]amino}isoindolinyl)methyl]amino}pyridine-4-carboxylic acid], the IC50 in assay [1] is 100 to 1000 nM; at JMJD3 (setting [3]), 1000 to 10000 nM; at JMJD3 (setting [2]) it was 1000 to 10000 nM; against JMJD2C (setting [3]), 1000 to 10000 nM; on JMJD2C (setting [2]) it was 1000 to 10000 nM; at Jarid1B (setting [3]) it was no more than 100 nM. This compound showed an IC50 against Jarid1B (setting [2]) of no more than 100 nM.
`CCc1ccc(N(C)c2ccc3c(c2)CCN(C)[C@@H]3CNc2cnccc2C(=O)O)cc1` [Example 13B, (S)-3-(((6-((4-ethylphenyl)(methyl)amino)-2-methyl-1,2,3,4-tetrahydro-isoquinolin-1-yl)methyl)amino)isonicotinic acid]: the IC50 in assay [1] is no more than 100 nM; against JMJD3 (setting [2]), 1000 to 10000 nM; at JMJD2C (setting [2]), 100 to 1000 nM; at Jarid1B (setting [2]), no more than 100 nM.
Take `CCCc1ccc(N(C)c2ccc3c(c2)CCN(C)[C@@H]3CNc2cnccc2C(=O)O)cc1` [Example 14B, (S)-3-(((2-methyl-6-(methyl (4-propylphenyl)amino)-1,2,3,4-tetrahydroisoquinolin-1-yl)methyl)amino)isonicotinic acid]: the IC50 in assay [1] was no more than 100 nM; against JMJD3 (setting [2]) it was 1000 to 10000 nM; on JMJD2C (setting [2]) it was 1000 to 10000 nM; at Jarid1B (setting [2]), no more than 100 nM.
`CCc1ccc(N(C)c2ccc3c(c2)CCN[C@@H]3CNc2cnccc2C(=O)O)cc1` [Example 10B, (S)-3-(((6-((4-ethylphenyl)(methyl)amino)-1,2,3,4-tetrahydroisoquinolin-1-yl)methyl)amino)isonicotinic acid]: the IC50 in assay [1] is 100 to 1000 nM; against JMJD3 (setting [2]) it was 1000 to 10000 nM; against JMJD2C (setting [2]) it was 1000 to 10000 nM; on Jarid1B (setting [2]) it was no more than 100 nM.
As for `Cc1cc(OCC(F)(F)F)ccc1-c1ccc2c(c1)CN[C@@H]2CNc1cnccc1C(=O)O` [Example 7A, 3-[({(1S)-5-[2-methyl-4-(2,2,2-trifluoro-ethoxy)phenyl]isoindolinyl}methyl)amino]pyridine-4-carboxylic acid], the IC50 in assay [1] is 100 to 1000 nM; against JMJD3 (setting [3]), 100 to 1000 nM; on JMJD3 (setting [2]), 1000 to 10000 nM; at JMJD2C (setting [3]), 1000 to 10000 nM; against JMJD2C (setting [2]), 1000 to 10000 nM; on Jarid1B (setting [3]), no more than 100 nM. Besides, on Jarid1B (setting [2]), the 50% inhibitory concentration (IC50) is no more than 100 nM.
For the compound `Cc1cc(OCC(F)(F)F)ccc1-c1ccc2c(c1)CN[C@H]2CNc1cnccc1C(=O)O` [Example 7B, 3-[({(1R)-5-[2-methyl-4-(2,2,2-trifluoro-ethoxy)phenyl]isoindolinyl}methyl)amino] pyridine-4-carboxylic acid], the IC50 in assay [1] is 100 to 1000 nM; against JMJD3 (setting [3]) it was 1000 to 10000 nM; against JMJD3 (setting [2]), 1000 to 10000 nM; at JMJD2C (setting [3]), 1000 to 10000 nM; on JMJD2C (setting [2]), 1000 to 10000 nM; against Jarid1B (setting [3]) it was no more than 100 nM. The concentration for half-maximal inhibition (IC50) at Jarid1B (setting [2]) was no more than 100 nM.
Consider `Cc1ccccc1-c1ccc2c(c1)CCN[C@@H]2CNc1cnccc1C(=O)O` [Example 8B, (S)-3-(((6-(o-tolyl)-1,2,3,4-tetrahydroisoquinolin-1-yl)methyl)amino) isonicotinic Acid], for which the IC50 in assay [1] was 100 to 1000 nM; at JMJD3 (setting [2]), 1000 to 10000 nM; at JMJD2C (setting [2]) it was 1000 to 10000 nM; on Jarid1B (setting [2]), no more than 100 nM.
`Cc1ccccc1-c1ccc2c(c1)CCN[C@H]2CNc1cnccc1C(=O)O` [Example 8A, (R)-3-(((6-(o-tolyl)-1,2,3,4-tetrahydroisoquinolin-1-yl)methyl)amino)isonicotinic Acid]: the half-maximal inhibitory concentration (IC50) in assay [1] is 100 to 1000 nM; against JMJD3 (setting [2]), 1000 to 10000 nM; against JMJD2C (setting [2]), 1000 to 10000 nM; against Jarid1B (setting [2]), no more than 100 nM.

The term IC50 denotes the concentration that gives 50% inhibition. A lower IC50 goes with higher potency.
